Several values for one entry are separate records, joined by “and”; a condition that tells them apart may be missing. Equal values may be shown once.
What was measured:
[1] = test system: human colon carcinoma cell line HCT 116; experiment: In vitro cytotoxicity assay (XTT); format: cell-based
Method: Cytotoxicity for the pure compound was assessed in several HCT116 cell lines by XTT (2,3-bis(2-methoxy-4-nitro-5-sulfophenyl)-5-[(phenylamino)carbonyl]-2H-tetrazolium hydroxide assay (Scudiero, 1988). Cells were seeded at 4000 cells/well in 96 well microtiter plates. 24 hrs later drugs were added and serial diluted. The cells were incubated at 37° C. for 72 hrs at which time the tetrazolium dye, XTT, was added. A dehydrogenase enzyme in live cells reduces the XTT to a form that absorbs light at 450 nm and which can be quantitated spectrophotometrically. The greater the absorbance the greater the number of live cells. The results are expressed as an IC50 which is the drug concentration required to inhibit cell proliferation (i.e. absorbance at 450 nm) to 50% of that of untreated control cells.

[2] = test system: P388 mouse leukemia; experiment: In vivo antitumor activity, i.p. implanted P388 mouse leukemia
Method: (§1) For in vivo evaluation of antitumor activity 1×10^6 P388 mouse leukemia cells were implanted in the intraperitoneal (i.p.) cavity or injected intravenously (i.v.) into (BALB/c ×DBA/2)F1 (CDF1) or (C57/BL6×DBA/2)F1 (BDF1) mice (Roseet al., 1983). Compound (1) was dissolved in DMSO and diluted with saline to the desired concentrations. Injection of Compound (1) was by the i.p. or i.v. route beginning on the first day after tumor implantation and consecutively every day for five treatments (qldX5:1). Increases in lifespan were reflected by the median survival time of treated (T) versus control (C) groups for which a % T/C was calculated. When antitumor activity was evaluated in M109 mouse lung .tumors, 0.2 ml of a 2.0% brei was implanted subcutaneously (s.c.) in CDF1 mice (Rose, 1981). The treatment schedule was one injection per day for days 4-8 after tumor implantation. Results are expressed as % T/C. Tumor growth inhibition was determined by calculating the relative median times for T and C mice to reach a 1 g size. Tumor weights were interchangeable with tumor size on the basis of 1 mm^3 =1 mg. The activity criterion for tumor growth inhibition (T-C) was approximately equal to a T-C of 4 days. Depending on the tumor volume doubling time for the M109 tumors in control mice, this amount of delay in tumor growth is consistent with about one log of cell kill. For both P388 and M109 tumor models, a T/C of […] was considered an active result.
(§2) Initial testing was done versus i.p. implanted P388 mouse leukemia. An optimal dose of 0.03 mg/kg/inj given i.p. produced a 50% increase in lifespan (150% T/C). In addition, Compound (1) was evaluated in two distal site models; i.v. implanted P388 or s.c. implanted M109 in which Compound (1) was given by i.v. injection.

[3] = test system: P388 mouse leukemia; experiment: In vivo antitumor activity, i.v. implanted P388 mouse leukemia (distal site)
Method: as §1, §2

[4] = as above; conditions: mouse, in vivo, iv; P388 i.v.; qd 1-5, i.v.; read-out: maximum tolerated dose (MTD)
Method: as §1, §2

[5] = test system: M109 mouse lung tumors; experiment: In vivo antitumor activity, s.c. implanted M109 mouse lung tumor (distal site)
Method: as §1, §2

What does the source list for `C=C1C(O)CC(=O)C(C)C=C(C)CC(O)C2(O)OC(CCC2O)CC2CCC(O2)C(CCCC)OC(=O)C(C)C(O)C2OC12` (stereo not shown) [Compound (1), caribenolide I]?
cytotoxicity in vitro (in words) [1]: potent cytotoxicity; IC50 ([1]; human colon carcinoma HCT 116, XTT, 72 hrs): 1.6 nM; optimal dose (OD) ([2]; P388 i.p., qd 1-5, i.p.): 0.03 mg/kg/inj and 0.030 mg/kg/inj; MST, % T/C (median survival time treated vs control) ([2]; ip, 0.03 mg/kg): 150%; increase in lifespan ([2]; ip, 0.03 mg/kg): 50%; increase in life span (in words) ([3]; P388 i.v., doses up to MTD 0.064 mg/kg/inj, i.v.): did not increase the life span; MST, % T/C (median survival time treated vs control) ([3]; iv, 0.064 mg/kg): 107%; MTD [4]: 0.064 mg/kg; MST, % T/C (median survival time treated vs control) ([5]; 0.060/0.120 mg/kg/inj, qd 4-8, i.v.): 128%; T-C (tumor growth delay) ([5]; 0.060/0.120 mg/kg/inj, qd 4-8, i.v., time to 1 g size): 1.3 days; distal site activity (in words) ([5]; i.v. dosing): no meaningful distal site activity; OD, first printed value ([5]; qd 4-8, i.v.): 0.060 mg/kg/inj; OD, second printed value ([5]; qd 4-8, i.v.): 0.120 mg/kg/inj
